Assay results reported in ChEMBL document CHEMBL4346657, “Anticancer activity, dual prooxidant/antioxidant effect and apoptosis induction profile of new bichalcophene-5-carboxamidines” (Eur J Med Chem, 2019).
Activity calls are given as the source filed them. The rule behind the calls is not given here.

Experiments:
[1] = Haemolytic activity in human erythrocytes assessed as induction of hemolysis at 10 mM after 30 mins relative to H202; assay type: cell-based, Erythrocyte; conditions: read-out: Activity
[2] = tested on: TK-10; assay: Antiproliferative activity against human TK10 cells assessed as growth inhibition after 48 hrs by sulforhodamine B assay; assay type: functional; conditions: TK-10, 48 h
[3] = tested on: SK-OV-3; assay: Antiproliferative activity against human SKOV3 cells assessed as growth inhibition after 48 hrs by sulforhodamine B assay; assay type: functional; conditions: SK-OV-3, 48 h
[4] = tested on: EKVX; assay: Antiproliferative activity against human EKVX cells assessed as growth inhibition after 48 hrs by sulforhodamine B assay; assay type: functional
[5] = tested on: SNB-75; assay: Antiproliferative activity against human SNB75 cells assessed as growth inhibition after 48 hrs by sulforhodamine B assay; assay type: functional; conditions: SNB-75, 48 h
[6] = tested on: MOLT-4; assay: Antiproliferative activity against human MOLT4 cells assessed as growth inhibition after 48 hrs by sulforhodamine B assay; assay type: functional; conditions: MOLT-4, 48 h
[7] = tested on: OVCAR-3; assay: Antiproliferative activity against human OVCAR3 cells assessed as growth inhibition after 48 hrs by sulforhodamine B assay; assay type: functional; conditions: OVCAR-3, 48 h
[8] = tested on: HOP-62; assay: Antiproliferative activity against human HOP62 cells assessed as growth inhibition after 48 hrs by sulforhodamine B assay; assay type: functional; conditions: HOP-62, 48 h
[9] = tested on: DU-145; assay: Antiproliferative activity against human DU145 cells assessed as growth inhibition after 48 hrs by sulforhodamine B assay; assay type: functional; conditions: DU-145, 48 h
[10] = tested on: 786-0; assay: Antiproliferative activity against human 786-0 cells assessed as growth inhibition after 48 hrs by sulforhodamine B assay; assay type: functional; conditions: 786-0, 48 h
[11] = tested on: SF-539; assay: Antiproliferative activity against human SF539 cells assessed as growth inhibition after 48 hrs by sulforhodamine B assay; assay type: functional; conditions: SF-539, 48 h
[12] = tested on: SN12C; assay: Antiproliferative activity against human SN12C cells assessed as growth inhibition after 48 hrs by sulforhodamine B assay; assay type: functional
[13] = tested on: OVCAR-8; assay: Antiproliferative activity against human OVCAR8 cells assessed as growth inhibition after 48 hrs by sulforhodamine B assay; assay type: functional; conditions: OVCAR-8, 48 h
[14] = tested on: OVCAR-5; assay: Antiproliferative activity against human OVCAR5 cells assessed as growth inhibition after 48 hrs by sulforhodamine B assay; assay type: functional; conditions: OVCAR-5, 48 h
[15] = tested on: OVCAR-4; assay: Antiproliferative activity against human OVCAR4 cells assessed as growth inhibition after 48 hrs by sulforhodamine B assay; assay type: functional; conditions: OVCAR-4, 48 h
[16] = Antioxidant activity assessed as DPPH radical scavenging activity incubated in dark for 30 mins by spectrophotometric method relative to control; assay type: functional; parameters: concentration or dose not given beside the values
[17] = Antioxidant activity assessed as ABTS radical scavenging activity by spectrophotometric analysis relative to control; assay type: functional; parameters: concentration or dose not given beside the values; conditions: dose or concentration not given here
[18] = tested on: LOX IMVI; assay: Antiproliferative activity against human LOXIMVI cells assessed as growth inhibition after 48 hrs by sulforhodamine B assay; assay type: functional
[19] = tested on: NCI-H460; assay: Antiproliferative activity against human NCI-H460 cells assessed as growth inhibition after 48 hrs by sulforhodamine B assay; assay type: functional; conditions: NCI-H460, 48 h
[20] = tested on: UACC-257; assay: Antiproliferative activity against human UACC257 cells assessed as growth inhibition after 48 hrs by sulforhodamine B assay; assay type: functional; conditions: UACC-257, 48 h
[21] = tested on: HCT-116; assay: Induction of apoptosis in human HCT116 cells assessed as increase in caspase 3 mRNA expression at 100 nM after 6 hrs hrs by SYBR green dye-based qRT-PCR analysis relative to control; assay type: functional
[22] = tested on: HCT-15; assay: Antiproliferative activity against human HCT15 cells assessed as growth inhibition after 48 hrs by sulforhodamine B assay; assay type: functional; conditions: HCT-15, 48 h
[23] = tested on: CAKI-1; assay: Antiproliferative activity against human CAKI-1 cells assessed as growth inhibition after 48 hrs by sulforhodamine B assay; assay type: functional; conditions: CAKI-1, 48 h
[24] = Pro-oxidant activity assessed as increase in bleomycin-Fe2+ induced calf thymus DNA damage at 2 mM after 1 hr by thiobarbituric acid based absorbance analysis
[25] = Haemolytic activity in human erythrocytes assessed as induction of hemolysis at 5 mM after 30 mins relative to H202; assay type: cell-based, Erythrocyte; conditions: read-out: Activity
[26] = tested on: BT-549; assay: Antiproliferative activity against human BT549 cells assessed as growth inhibition after 48 hrs by sulforhodamine B assay; assay type: functional; conditions: BT-549, 48 h
[27] = tested on: SF-268; assay: Antiproliferative activity against human SF268 cells assessed as growth inhibition after 48 hrs by sulforhodamine B assay; assay type: functional; conditions: SF-268, 48 h
[28] = tested on: RXF 393; assay: Antiproliferative activity against human RXF393 cells assessed as growth inhibition after 48 hrs by sulforhodamine B assay; assay type: functional; conditions: RXF 393, 48 h
[29] = tested on: Malme-3M; assay: Antiproliferative activity against human MALME-3M cells assessed as growth inhibition after 48 hrs by sulforhodamine B assay; assay type: functional
[30] = tested on: A549; assay: Antiproliferative activity against human A549/ATCC cells assessed as growth inhibition after 48 hrs by sulforhodamine B assay; assay type: functional; conditions: A549, 48 h
[31] = tested on: MCF7; assay: Antiproliferative activity against human MCF7 cells assessed as growth inhibition after 48 hrs by sulforhodamine B assay; assay type: functional; conditions: MCF7, 48 h
[32] = tested on: MDA-MB-468; assay: Antiproliferative activity against human MDA-MB-468 cells assessed as growth inhibition after 48 hrs by sulforhodamine B assay; assay type: functional; conditions: MDA-MB-468, 48 h
[33] = tested on: PC-3; assay: Antiproliferative activity against human PC3 cells assessed as growth inhibition after 48 hrs by sulforhodamine B assay; assay type: functional; conditions: PC-3, 48 h
[34] = Antioxidant activity assessed as hydroxyl radical scavenging activity after 1 hr by salicylic acid-based Fenton reaction assay; assay type: functional
[35] = tested on: NCI-H23; assay: Antiproliferative activity against human NCI-H23 cells assessed as growth inhibition after 48 hrs by sulforhodamine B assay; assay type: functional; conditions: NCI-H23, 48 h
[36] = tested on: Panel NCI-60 (60 carcinoma cell lines); assay: Antiproliferative activity against human NCI60 cells assessed as growth inhibition after 48 hrs by sulforhodamine B assay; assay type: functional
[37] = tested on: UO-31; assay: Antiproliferative activity against human UO31 cells assessed as growth inhibition after 48 hrs by sulforhodamine B assay; assay type: functional; conditions: UO-31, 48 h
[38] = tested on: HCT-116; assay: Induction of apoptosis in human HCT116 cells assessed as increase in p53 mRNA expression at 100 nM after 6 hrs hrs by SYBR green dye-based qRT-PCR analysis relative to control; assay type: functional
[39] = tested on: MDA-MB-231; assay: Antiproliferative activity against human MDA-MB-231/ATCC cells assessed as growth inhibition after 48 hrs by sulforhodamine B assay; assay type: functional; conditions: MDA-MB-231, 48 h
[40] = tested on: MDA-MB-435; assay: Antiproliferative activity against human MDA-MB-435 cells assessed as growth inhibition after 48 hrs by sulforhodamine B assay; assay type: functional; conditions: MDA-MB-435, 48 h
[41] = tested on: HCT-116; assay: […] in CDK1 mRNA expression in human HCT116 cells at 100 nM after 6 hrs hrs by SYBR green dye-based qRT-PCR analysis relative to control; assay type: functional
[42] = tested on: COLO 205; assay: Antiproliferative activity against human COLO205 cells assessed as growth inhibition after 48 hrs by sulforhodamine B assay; assay type: functional; conditions: COLO 205, 48 h

N=C(N)c1ccc(-c2ccc(-c3cc(Cl)cc(Cl)c3)o2)o1
hemolysis at 0.5 h, 10000 µM [1]: 89.3% | GI50 [2]: 1860 nM | GI50 [3]: 1800 nM | GI50 [4]: 1640 nM | GI50 [5]: 1410 nM | GI50 [6]: 1690 nM | GI50 [7]: 1700 nM | GI50 [8]: 1890 nM | GI50 [9]: 1780 nM | GI50 [10]: 1780 nM | GI50 [11]: 1720 nM | GI50 [12]: 1970 nM | GI50 [13]: 2230 nM | GI50 [14]: 1810 nM | GI50 [15]: 1850 nM | inhibition [16]: 15.7% | inhibition [17]: 19% | GI50 [18]: 1680 nM | GI50 [19]: 1900 nM | GI50 [20]: 2050 nM | fold change (FC) [21]: 2.81 | GI50 [22]: 1640 nM | GI50 [23]: 1700 nM | Activity [24]: Active | hemolysis at 0.5 h, 5000 µM [25]: 57.1% | GI50 [26]: 1970 nM | GI50 [27]: 1770 nM | GI50 [28]: 1790 nM | GI50 [29]: 1840 nM | GI50 [30]: 1950 nM | GI50 [31]: 1350 nM | GI50 [32]: 2230 nM | GI50 [33]: 1800 nM | Activity [34]: Active | GI50 [35]: 1670 nM | GI50 [36]: 1740 nM | LC50 [36]: 10700 nM | TGI [36]: 3470 nM | GI50 [37]: 1710 nM | fold change (FC) [38]: 1.99 | GI50 [39]: 1850 nM | GI50 [40]: 1610 nM | fold change (FC) [41]: 0.54 | GI50 [42]: 1310 nM
